According to patent US7928095B2, “Treatment of resistant or refractory cancers with multi-arm polymeric conjugates of 7-ethyl-10-hydroxycamptothecin” (Enzon Pharmaceuticals, Inc., priority 2007, dated 2011):

Columns and labels:
[1] = tested on: refractory human HT-29 colorectal tumor; test: Therapeutic efficacy in CPT-11 refractory human HT-29 colorectal tumor xenografted nude mice; type: in vivo
Protocol: Therapeutic efficacy of four-arm PET-Gly-(7-ethyl-10-hydroxycamptothecin) against a refractory human HT-29 colorectal tumor grown in nude mice was determined. […] When tumors reached an average volume of 100 mm^3, mice were treated with CPT-11 (40 mg/kg/dose; q2d×4). Mice were monitored for tumor growth. […] These mice were selected, randomized and divided into two groups. […] The drugs were administered intravenously via the tail vein.
The data in FIG. 1 represent mean±standard deviation (n=7).

[2] = tested on: Human HT-29 colorectal tumors; test: Therapeutic efficacy in HT-29 colorectal tumor xenografted mice, second round treatment after CPT-11; type: in vivo, nude mice
Protocol: When tumors reached an average volume of 100 mm^3, mice were treated with CPT-11 (40 mg/kg/dose; q2d×4). Mice were monitored for tumor growth. […] One group was further treated with MTD of CPT-11 (40 mg/kg/dose; q2d×5) and the other group was treated with MTD of four-arm ^40KPEG-Gly-(7-ethyl-10-hydroxycamptothecin) (10 mg/kg/dose q2d×5) starting day 16. The drugs were administered intravenously via the tail vein.
The data in FIG. 2 represent mean±standard deviation (n=10).

[3] = tested on: CPT-refractory cell line (CEM/C2); conditions: CEM/C2 cells, 2 days at 37° C., MTS; FIG. 3
Protocol: CPT-refractory cell line (CEM/C2) and the corresponding non-refractory parent cell line (CEM) were treated with PEG-Gly-(7-ethyl-10-hydroxycamptothecin), 7-ethyl-10-hydroxycamptothecin, and CPT-11. The CEM/C2 and CEM were obtained from NCI. The CEM cell lines are acute lymphoblastic leukemia cell lines. The in vitro cytotoxicity of each drug was determined using a MTS assay. […] At the end of the incubation, MTS dye was added and incubated for 2 to 3 hours at 37° C. and formation of a colored product (formazan) was measured at 490 nm. The % viability at each drug concentration was calculated as [OD test samples−background]/[OD controls (no treatment)−background]. Sigmoidal dose response curves were generated by plotting Log (Drug) as a function of % viability (survival) and IC50 values were calculated using the GraphPad Prism software.

Row | Compound | animals sacrificed due to excessive tumor burden (>1,650 mm^3) ([1]; by day 42) [%] | animals sacrificed due to excessive tumor burden (>1,650 mm^3) ([1]; by day 54) [%] | animals sacrificed due to excessive tumor burden ([2]; as of day 61) [%] | mice with tumors <1,650 mm^3 ([1]; by day 72) [%] | tumor volume decreased compared to day 15 ([1]; day 42, CPT-11 refractory mice, 10 mg/kg/dose q2d×5 i.v. starting day 16) [%] | animals sacrificed ([1]; on day 63, n=7) | tumor volume increased compared to day 1 ([2]; day 54, CPT-11 sensitive mice, second round treatment q2d×5 i.v. starting day 16) [%] | deaths recorded ([2]; on day 61) | potency relative to CPT-11 (cytotoxicity IC50) [3]
1 | CCc1c2c(nc3ccc(OC(=O)N4CCC(N5CCCCC5)CC4)cc13)-c1cc3c(c(=O)n1C2)COC(=O)[C@]3(O)CC [CPT-11, Irinotecan, reference compound] | 29 | 100 | 60 | – | – | – | – | – | –
2 | four-arm ^40KPEG-Gly-(7-ethyl-10-hydroxycamptothecin) [compound 9] | – | – | – | 58 | 25 | 1 of 7 | 193 | No deaths | about 10 fold
